# Results published in patent US7560096B2, “Diagnostic procedures using direct injection of gaseous hyperpolarized 129Xe and associated systems and products” (Medi-Physics, Inc, priority 2000, dated 2009).
# Like-named read-outs stand apart in the source and are kept apart here.
# Legend:
# [1] = Solubilities of gases in water, plasma, blood and tissues; format: physicochemical
# Excerpt: The feasibility of gaseous ^129Xe injection, particularly for arterial injections, may appear problematic. For example, it is known that arterial injections of air can lead to an undesirable air embolus. Although with intravenous (IV) injection the introduction of air is less of a concern, great care is typically taken to avoid such occurrences. The injection of CO2 is successful because of its high solubility in blood and the body's unique ability to remove it. The solubility of CO2 in blood and plasma can be difficult to measure because it is chemically metabolized.
# Nonetheless, it is believed that the solubility that is of primary interest for the discussion herein and that the CO2 metabolism can be disregarded for the purposes of this comparison.
# [2] = Bubble dissipation model (Krogh's coefficient) for gas bubbles in blood
# Excerpt: To better understand bubble dissipation, one can model a string of contiguous bubbles as a cylinder to look at the diffusion of the gas out of the “cylinder” into the surrounding fluid to analyze how the bubble volume or radius decreases with time. Presser et al., in modeling a simulation as stated above, noted that the bubble radius “r” versus time can be represented by the equation: dr/dt=−KΔP/[rln(R/r)] where “K” is Krogh's coefficient (the product of solubility “S” and diffusion coefficient “D” of the gas in the surrounding fluid), “ΔP” is the pressure difference between gas in the bubbles and gas in the alveoli and “R” is the distance from the center of the bubbles to the inner edge of the adjacent alveoli.
# That is, for comparative analysis, it is believed that one can evaluate the Krogh's coefficient (S×D) for Xe relative to air. The diffusion coefficient is substantially the same and can be cancelled out. For example, Xe in H2O is about 1.9×10^−5 cm^2/s while methane and water itself are at 2 and 2.3×10^−5 cm^2/s, respectively. Thus, solubility “S” becomes the important factor.
# [3] = cited from earlier work
# [4] = Relaxation of hyperpolarized gas on container surface materials (GE180 glass, high purity aluminum); format: physicochemical; details: for ψ (relaxivity of GE180 glass for the gas): from T1 and A/V=3/R
# Excerpt: In order to calculate optimal capillary lengths, relaxivity values or estimates are needed. As a simple estimate, one can consider that an 180 cc spherical chamber of GE180 glass has a relaxation times of about 40 hr for ^3He and about 2 hr for ^129Xe. Knowing the relationship of “A/V=3/R” for a sphere, one can determine the relaxivity ψ of GE180 glass for both gases. The diffusion coefficients are noted for reference below.
# The gas contacting surfaces of the injector head 300 can be formed of or coated with suitable materials to inhibit the depolarization of the gas as it travels therethrough. Examples of suitable materials include, but are not limited to, alumminosilicate glass, certain polymer materials or metallic materials or other materials as described herein. Surface coatings, such as a sputter coating of a non-depolarizing material of high purity silver or aluminum. The relaxivity of high purity aluminum for ^129Xe has been recently measured to be about 0.00225 cm/min. Metals other than aluminum which can be used include indium, gold, zinc, tin, copper, bismuth, silver, niobium, and oxides thereof. Preferably, “high purity” metals are employed (i.e., metals which are substantially free of paramagnetic or ferrous impurities) because even minute amounts of undesirable materials or contaminants may degrade the surface. Preferably, the metal is chosen such that it is well below 1 ppm in ferrous or paramagnetic impurity content.
# [5] = noted for reference; cited from earlier work
# [6] = Inhalation (breath-hold) delivery of hyperpolarized 129Xe: uptake and delivery to the brain; format: in vivo, human
# Excerpt: In addition, due to the high solubility of ^129Xe in blood and tissues, vascular and tissue imaging using inhaled hyperpolarized ^129Xe has also been proposed. Generally described, during inhalation delivery, a quantity of hyperpolarized ^129Xe is inhaled by a subject (a subject breathes in the ^129Xe gas) and the subject then holds his or her breath for a short period of time, i.e., a “breath-hold” delivery. This inhaled ^129Xe gas volume then exits the lung space and is generally taken up by the pulmonary vessels and associated blood or pulmonary vasculature at a rate of approximately 0.3% per second. For example, for an inhaled quantity of about 1 liter of hyperpolarized ^129Xe, an estimated uptake is about 3 cubic centimeters per second or a total quantity of about 40 cubic centimeters of ^129Xe over about a 15 second breath-hold period. Accordingly, it has been noted that such uptake can be used to generate images of pulnonary vasculature or even organ systems more distant from the lungs. See co-pending and co-assigned U.S. patent application Ser. No. 09/271,476 to Driehuys et al, entitled Methods for Imaging Pulmonary and Cardiac Vasculature and Evaluating Blood Flow Using Dissolved Polarized ^129Xe. Although primarily directed to inhalation delivery, this application also proposes injection of ^129Xe to replace conventional radioactive tracers in perfusion imaging methods. The contents of this application are hereby incorporated by reference as if recited in full herein.
# Many researchers are also interested in the possibility of using inhaled ^129Xe for imaging white matter perfusion in the brain, renal perfusion, and the like. While the inhaled delivery ^129Xe methods are suitable, and indeed, preferable, for many MRI applications for several reasons, such as the non-invasive characteristics attendant with such a delivery to a human subject, it may not be the most efficient method to deliver a sufficiently large dose to more distant (away from the pulmonary vasculature which is proximate to the lungs) target areas of interest. In addition, due to the dilution of the inhaled ^129Xe along the perfusion delivery path, relatively large quantities of the hyperpolarized ^129Xe are typically inhaled in order to deliver a small fraction of the gas to the more distal target sites or organ systems. For example, the brain typically receives only about 13% of the total blood flow in the human body. Thus, the estimated 40 cubic centimeter quantity of hyperpolarized ^129Xe taken up into the pulmonary vessels from the 1-liter inhalation dose can be reduced to only about 5 cubic centimeters by the time it reaches the brain.
# Further, the hyperpolarized state of the gas is sensitive and can decay relatively quickly due to a number of relaxation mechanisms. Indeed, the relaxation time (generally represented by a decay constant “T1”) of the ^129Xe in the blood, absent other external depolarizing factors, is estimated at T1=4.0 seconds for venous blood and T1=6.4 s for arterial blood at a magnetic field strength of about 1.5 Tesla. See Wolber et al., Spin-lattice relaxation of laser-polarized xenon in human blood, 96 Proc. Natl. Acad. Sci. USA, pp. 3664-3669 (March 1999). (The more oxygenated arterial blood provides increased polarization life over the relatively de-oxygenated venous blood). […]
# [7] = Relaxation time (T1) of polarized 129Xe in blood and lung; format: physicochemical, human
# Excerpt: Further, the hyperpolarized state of the gas is sensitive and can decay relatively quickly due to a number of relaxation mechanisms. Indeed, the relaxation time (generally represented by a decay constant “T1”) of the ^129Xe in the blood, absent other external depolarizing factors, is estimated at T1=4.0 seconds for venous blood and T1=6.4 s for arterial blood at a magnetic field strength of about 1.5 Tesla. See Wolber et al., Spin-lattice relaxation of laser-polarized xenon in human blood, 96 Proc. Natl. Acad. Sci. USA, pp. 3664-3669 (March 1999). (The more oxygenated arterial blood provides increased polarization life over the relatively de-oxygenated venous blood). Therefore, for about a 5 second transit time (the time estimate for the uptaken hyperpolarized ^129Xe to travel to the brain from the pulmonary vessels), the ^129Xe polarization is reduced to about 37% of its original value. In addition, the relaxation time of the polarized ^129Xe in the lung itself is typically about 20-25 seconds due to the presence of paramagnetic oxygen. Accordingly, ^129Xe taken up in the latter portion of the breath-hold cycle can decay to have only about 50% of the starting polarization (the polarization level at the initial portion of the breath hold cycle). Thus, generally stated, the average polarization of ^129Xe entering the pulmonary blood can be estimated to be at about 75% of the starting inhaled polarization value. Taking these effects into account, the delivery to the brain of the inhaled ^129Xe can be estimated as about 1.4 cubic centimeters of the inhaled one-liter dose of ^129Xe polarized to the same level as the inhaled gas (0.75×0.37×5 cc's). […] Nonetheless, at least one researcher has made coarse images of ^129Xe in rat brains, but this inhalation administration delivery required large quantities of ^129Xe to be inhaled over a relatively long period of time. […] Unfortunately, the extended inhalation time period and/or associated large quantity dosage of the gas may not be desirable for certain clinical applications.
# [8] = NMR spectra after polarized 129Xe gas injection into the vein of a rabbit; format: in vivo
# Excerpt: The signal strength at 8 seconds (FIG. 10P) being about 0.65 that of the original signal (FIG. 10A).
# The rabbit survived the experiment. […] The signal strength at 8 seconds (FIG. 10P) being about 0.65 that of the original signal (FIG. 10A). The rabbit was placed in a whole body imager so that the exact location of the signal within the rabbit's body is not disclosed in the spectra. It is noted that a large quantity of the injected gas remained in the gas phase upon injection, most likely due to the size of the lumen used, about 0.5 mm.
# [9] = inhalation, breath-hold; cited from earlier work
# [10] = cited from earlier work; remark: listed apart in the source
structure (smiles),measurement,setting,value
"[Xe] [Xe, xenon]",Solubility ratio of xenon gas to nitrogen gas in blood,"[1]; 0.167/[…], air approximated as nitrogen",~11
same,Solubility relative to air,"[1]; in blood, compared with air",about 10 times
same,Time for a 30 μm radius bubble to dissipate,[2]; 30 μm radius bubble,about 20 seconds
same,Bubble dissipation rate (dr/dt),[2]; estimated from solubility ratio to air in blood,−1.5 μm/s
same,Diffusion coefficient in H2O,[3],about 1.9×10^−5 cm^2/s
"[3He] [^3He, reference compound]",ψ (relaxivity of GE180 glass for the gas),[4],8.1e-06 cm/s
same,D (diffusion coefficient of the gas),[5],2.05 cm^2/s
[129Xe] [^129Xe],Quantity by the time it reaches the brain,"[6]; from 40 cc taken up of 1-liter inhalation dose, brain receives about 13% of blood flow",about 5 cubic centimeters
same,Quantity delivered to remote target (brain) as fraction of inhaled 129Xe,[6]; inhalation,about 0.14%
same,Total quantity taken up,"[6]; inhaled about 1 liter, about 15 second breath-hold",about 40 cubic centimeters
same,"Delivery to the brain, as 129Xe polarized to the same level as the inhaled gas",[6]; inhaled one-liter dose (0.75×0.37×5 cc's),about 1.4 cubic centimeters
same,Estimated uptake,[6]; inhaled quantity about 1 liter,about 3 cubic centimeters per second
same,Polarization remaining relative to original value after transit to the brain,[7]; about 5 second transit time from pulmonary vessels to brain,about 37%
same,"Average polarization of 129Xe entering the pulmonary blood, of starting inhaled polarization","[7]; inhalation, breath-hold",about 75%
same,"Polarization of 129Xe taken up in the latter portion of the breath-hold cycle, of starting polarization",[7]; latter portion of breath-hold,about 50%
same,Bubble dissipation rate relative to air in blood,"[2]; in blood, faster than air",about 11 times
same,ψ (relaxivity of GE180 glass for the gas),[4],0.00017 cm/s
same,Relaxivity of high purity aluminum for 129Xe,[4]; high purity aluminum surface,about 0.00225 cm/min
same,Survival of the animal,[8]; about 3 cc gas injected into vein of rabbit,survived
same,Phase of the injected gas in the bloodstream during acquisition,"[8]; about 3 cc into vein of rabbit, about 8 seconds",remained substantially in the gas phase
same,T1 of the gas in the blood,"[8]; gas phase in the bloodstream, rabbit",at least 20 seconds
same,Rate of uptake of inhaled gas by pulmonary vessels and blood,[9],approximately 0.3 % per second
same,Relaxation time T1 in arterial blood,"[10]; arterial blood, about 1.5 Tesla",6.4 s
same,Relaxation time in the lung,"[10]; in the lung, presence of paramagnetic oxygen",20 to 25 s
same,Relaxation time T1 in venous blood,"[10]; venous blood, about 1.5 Tesla",4.0 s
same,D (diffusion coefficient of the gas),[5],0.065 cm^2/s
C [methane],Diffusion coefficient in H2O,[3]; exponent shared with the following value,2 ×10^−5 cm^2/s
O [water],Diffusion coefficient in H2O,[3],2.3×10^−5 cm^2/s
